Measurements as given in patent US10421718B2, “EBNA1 inhibitors and their method of use” (priority 2013, dated 2019).
pIC50: −log10 of the molar value. Counter-ions that a name gives are not always drawn.

Target: T1, His-EBNA1 (DNA binding domain of EBNA1, amino acids 459-607) (Epstein-Barr virus, UniProt P03211)
T1 construct: made in house; host or cells: E. coli
Test: Inhibition of 5′-biotin-oPL4624 binding to His-EBNA1 using Alpha Screen technology
Settings: Alpha Screen Activity (IC50, inhibition of 5′-biotin-oPL4624 binding to His-EBNA1), 15 nM His-EBNA1, 0.2 nM bt-oPL4624, 2 hr room temperature
Procedure: Inhibition of 5′-biotin-oPL4624 binding to His-EBNA1 using Alpha Screen technology: Assays were performed using the DNA binding domain of EBNA1 (amino acids 459-607), which was His-tagged (His-EBNA1) and the self-complementary biotinylated (bt) oligonucleotide with the sequence 5′-bt-[…]-ATGCTACCC-3′ (bt-oPL4624). The protein was expressed in E. coli and purified according to Barwell, et al. (Barwell J A, Bochkarev A, Pfuetzner R A, Tong H, Yang D S, Frappier L, Edwards A M. (1995) Overexpression, purification, and crystallization of the DNA binding and dimerization domains of the Epstein-Barr virus nuclear antigen 1. J Biol Chem. 270: 20556-9.). The bt-oPL4624 oligonucleotide was purchased from Integrated DNA Technologies, Inc (IDT). AlphaScreen donor, acceptor beads and white, opaque 384-well assay plates were purchased from PerkinElmer, Inc.
Assays contained 15 nM His-EBNA1, 0.2 nM bt-oPL4624, 5 μg/mL AlphaScreen streptavidin donor beads and nickel chelate acceptor beads, and a series of concentrations of test compound ranging from 3.2 nM to 100 μM in a total volume of 40 μL assay buffer (25 mM Tris, pH 7.2, 160 mM NaCl, 1 mM MgCl2). His-EBNA1 (30 nM) and bt-oPL4624 (0.4 nM) were preincubated with 10 μg/mL nickel chelate AlphaScreen acceptor bead, or 10 μg/mL streptavidin AlphaScreen donor bead, respectively, for 30 minutes at room temperature in assay buffer. Twenty microliters of His-EBNA1/acceptor bead mix and bt-oPL4624/donor bead mix were transferred to assay plates containing […] of 1:3 serial dilutions of test compounds previously prepared in DMSO at concentrations ranging from 0.32 μM to 10 mM. Nonspecific binding was determined with 5 μg/mL AlphaScreen acceptor bead in the absence of His-EBNA1. After 2 hr incubation at room temperature, the AlphaScreen signal was measured on the Envision plate reader (PerkinElmer, Inc.) at 680 nm excitation and 570 nm emission. Inhibition values at each concentration of test compound were determined by setting 100% equal to raw data values in the absence of EBNA1 and 0% equal to the raw data values in the presence of EBNA1. Nonlinear regression fits of the inhibition values to a one-site dose-response equation were performed using GraphPad Prism.

T1 sequence (P03211 459-607): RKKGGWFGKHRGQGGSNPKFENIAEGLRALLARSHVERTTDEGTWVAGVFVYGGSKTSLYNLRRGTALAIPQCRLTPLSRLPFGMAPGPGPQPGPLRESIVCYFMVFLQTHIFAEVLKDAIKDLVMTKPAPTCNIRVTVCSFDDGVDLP

Compound	pIC50
O=C(O)c1cccc(C#Cc2ccccc2CO)c1F [Entry 88, 2-fluoro-3-{2-[2-(hydroxymethyl)phenyl]ethynyl}benzoic acid]	5.00 to 6.00
O=C(O)c1cccc(C#Cc2cscn2)c1F [Entry 89]	5.00 to 6.00
O=C(O)c1cccc(C#Cc2ccccn2)c1 [Entry 90, 3-[2-(pyridin-2-yl)ethynyl]benzoic acid]	3.00 to 4.00
O=C(O)c1cccc(C#Cc2cccnc2)c1 [Entry 91, 3-[2-(pyridin-3-yl)ethynyl]benzoic acid]	5.00 to 6.00
O=C(O)c1cccc(C#Cc2ccccc2)c1 [Entry 92, 3-(2-phenylethynyl)benzoic acid]	4.00 to 5.00
O=C(O)c1cccc(C#Cc2ccncc2)c1 [Entry 93, 3-[2-(pyridin-4-yl)ethynyl]benzoic acid]	5.00 to 6.00
COc1ccc(C#Cc2cccc(C(=O)O)c2)cc1 [Entry 94, 3-[2-(4-methoxyphenyl)ethynyl]benzoic acid]	3.00 to 4.00
CN(C)Cc1ccc(-c2c(C#Cc3ccccc3)cccc2C(=O)O)cc1 [Entry 95, 2-{4-[(dimethylamino)methyl]phenyl}-3-(2-phenylethynyl)benzoic acid trifluoroacetic acid salt]	5.00 to 6.00
O=C(O)c1cccc(C#Cc2ccccc2)c1C1=CCNCC1 [Entry 96, 3-(2-phenylethynyl)-2-(1,2,3,6-tetrahydropyridin-4-yl)benzoic acid trifluoroacetic acid salt]	5.00 to 6.00
O=C(O)c1cccc(C#Cc2ccccc2)c1-c1ccncc1 [Entry 97, 3-(2-phenylethynyl)-2-(pyridin-4-yl)benzoic acid trifluoroacetic acid salt]	4.00 to 5.00
CS(=O)(=O)c1ccc(-c2c(C#Cc3ccccc3)cccc2C(=O)O)cc1 [Entry 98, 2-(4-methanesulfonylphenyl)-3-(2-phenylethynyl)benzoic acid]	4.00 to 5.00
O=C(O)c1cccc(C#Cc2ccccc2)c1-c1cn[nH]c1 [Entry 99, 3-(2-phenylethynyl)-2-(1H-pyrazol-4-yl)benzoic acid]	5.00 to 6.00
O=C(O)c1cccc(C#Cc2ccccc2)c1-c1cncnc1 [Entry 100, 3-(2-phenylethynyl)-2-(pyrimidin-5-yl)benzoic acid]	3.00 to 4.00
Cn1cc(-c2c(C#Cc3ccccc3)cccc2C(=O)O)cn1 [Entry 101, 2-(1-methyl-1H-pyrazol-4-yl)-3-(2-phenylethynyl)benzoic acid]	5.00 to 6.00
O=C(O)c1cccc(C#Cc2ccccc2)c1N1CCCC1c1ccccc1 (stereo not drawn) [Entry 102, 3-(2-phenylethynyl)-2-(2-phenylpyrrolidin-1-yl)benzoic acid]	5.00 to 6.00
CN(C)C1CCN(c2c(C#Cc3ccccc3)cccc2C(=O)O)C1 (stereo not drawn) [Entry 103, 2-(3-(dimethylamino)pyrrolidin-1-yl)-3-(phenylethynyl)benzoic acid]	4.00 to 5.00
O=C(O)c1cccc(C#Cc2ccccc2)c1N1CCC(C(=O)O)C1 (stereo not drawn) [Entry 104, 1-(2-carboxy-6-(phenylethynyl)phenyl)pyrrolidine-3-carboxylic acid]	4.00 to 5.00
O=C(O)c1cccc(C#Cc2ccccc2)c1N1CC[C@H](O)C1 [Entry 105, (S)-2-(3-hydroxypyrrolidin-1-yl)-3-(phenylethynyl)benzoic acid]	3.00 to 4.00
O=C(O)c1cccc(C#Cc2ccccc2)c1N1CCCC1 [Entry 106, 3-(phenylethynyl)-2-(pyrrolidin-1-yl)benzoic acid]	4.00 to 5.00
O=C(O)c1cccc(C#Cc2ccccc2)c1N1CCNCC1 [Entry 107, 3-(phenylethynyl)-2-(piperazin-1-yl)benzoic acid]	4.00 to 5.00

Compound	pIC50
O=C(O)c1cccc(C#Cc2ccccc2)c1NCc1ccccc1 [Entry 108, 2-(benzylamino)-3-(phenylethynyl)benzoic acid]	4.00 to 5.00
O=C(O)c1cccc(C#Cc2ccccc2)c1-n1cc(-c2ccccc2)nn1 [Entry 109, 2-(4-phenyl-1H-1,2,3-triazol-1-yl)-3-(2-phenylethynyl)benzoic acid]	4.00 to 5.00
COc1cccc(-c2cn(-c3c(C#Cc4ccccc4)cccc3C(=O)O)nn2)c1 [Entry 110, 2-(4-(3-methoxyphenyl)-1H-1,2,3-triazol-1-yl)-3-(phenylethynyl)benzoic acid]	4.00 to 5.00
O=C(O)c1cccc(C#Cc2ccccc2)c1-n1cc(-c2cccnc2)nn1 [Entry 111, 3-(phenylethynyl)-2-(4-(pyridin-3-yl)-1H-1,2,3-triazol-1-yl)benzoic acid]	4.00 to 5.00
O=C(O)c1cccc(C#Cc2ccccc2)c1-n1cc(CCCO)nn1 [Entry 112, 2-(4-(3-hydroxypropyl)-1H-1,2,3-triazol-1-yl)-3-(phenylethynyl)benzoic acid]	4.00 to 5.00
CN(C)S(=O)(=O)NC(=O)c1cccc(C#Cc2ccccc2)c1-n1cccc1 [Entry 113, N-(Dimethylsulfamoyl)-3-(2-phenylethynyl)-2-(1H-pyrrol-1-yl)benzamide]	5.00 to 6.00
CN(C)S(=O)(=O)NC(=O)c1cccc(C#Cc2ccc(F)cc2)c1-n1cccc1 [Entry 114, N-(Dimethylsulfamoyl)-3-[2-(4-fluorophenyl)ethynyl]-2-(1H-pyrrol-1-yl)benzamide]	5.00 to 6.00
O=C(NS(=O)(=O)N1CCOCC1)c1cccc(C#Cc2ccccc2)c1-n1cccc1 [Entry 115, N-(morpholine-4-sulfonyl)-3-(2-phenylethynyl)-2-(1H-pyrrol-1-yl)benzamide]	3.00 to 4.00
O=C(NS(=O)(=O)N1CCS(=O)(=O)CC1)c1cccc(C#Cc2ccccc2)c1-n1cccc1 [Entry 116]	4.00 to 5.00
CS(=O)(=O)NC(=O)c1cccc(C#Cc2ccc(F)cc2)c1-n1cccc1 [Entry 117, 3-[2-(4-fluorophenyl)ethynyl]-N-methanesulfonyl-2-(1H-pyrrol-1-yl)benzamide]	4.00 to 5.00
NS(=O)(=O)NC(=O)c1cccc(C#Cc2ccccc2)c1-n1cccc1 [Entry 118, 3-(phenylethynyl)-2-(1H-pyrrol-1-yl)-N-sulfamoylbenzamide]	4.00 to 5.00
COc1ccc(-c2c(C#Cc3ccccc3)cccc2C(=O)O)cc1 [Entry 119, 2-(4-methoxyphenyl)-3-(2-phenylethynyl)benzoic acid]	5.00 to 6.00
COc1cccc(-c2c(C#Cc3ccccc3)cccc2C(=O)O)c1 [Entry 120, 2-(3-methoxyphenyl)-3-(2-phenylethynyl)benzoic acid]	5.00 to 6.00
COc1ccccc1-c1c(C#Cc2ccccc2)cccc1C(=O)O [Entry 121, 2-(2-methoxyphenyl)-3-(2-phenylethynyl)benzoic acid]	4.00 to 5.00
O=C(O)c1cccc(C#Cc2ccccc2)c1-c1cnc2ccccc2c1 [Entry 122, 3-(2-phenylethynyl)-2-(quinolin-3-yl)benzoic acid]	4.00 to 5.00
O=C(O)c1cccc(C#Cc2ccccc2)c1C1CC1 [Entry 123, 2-cyclopropyl-3-(2-phenylethynyl)benzoic acid]	5.00 to 6.00
O=C(O)c1cccc(C#Cc2ccccc2)c1-c1ccccc1 [Entry 124, 2-phenyl-3-(2-phenylethynyl)benzoic acid]	4.00 to 5.00
Cc1ccc(-c2c(C#Cc3ccccc3)cccc2C(=O)O)cc1 [Entry 125, 2-(4-methylphenyl)-3-(2-phenylethynyl)benzoic acid]	5.00 to 6.00
COc1ccc(-c2c(C#Cc3ccccc3)cccc2C(=O)O)cn1 [Entry 126, 2-(6-methoxypyridin-3-yl)-3-(2-phenylethynyl)benzoic acid]	4.00 to 5.00
